According to ChEMBL document CHEMBL5104105, “Identification of the first structurally validated covalent ligands of the small GTPase RAB27A” (RSC Med Chem, 2022):
Activity calls are given as the source filed them. No cut-off for these calls is given here.

How the values were obtained:
Homo sapiens [1] = organism: Homo sapiens; test: Covalent binding affinity to Spl2/Rab27A C123 mutant fusion protein (unknown origin) assessed as half-life of adduct formation by measuring protein mass shift after 8 hrs by intact-protein mass spectrometry
Homo sapiens [2] = organism: Homo sapiens; test: Covalent binding affinity to Spl2/Rab27A C188 mutant fusion protein (unknown origin) assessed as half-life of adduct formation by measuring protein mass shift after 24 hrs by intact-protein mass spectrometry

Activity (Homo sapiens [1])	Activity (Homo sapiens [2])	Structure (SMILES)
Active	Active	C=CC(=O)Nc1nc2ccccc2n1CCc1ccccn1
	Active	C=CC(=O)N1CCC[C@H]1c1ccc(OC)cc1
